Source: paper PMC7782793, “Hydroxamic acid-modified peptide microarrays for profiling isozyme-selective interactions and inhibition of histone deacetylases” (Nature Communications, 2021)
Where “and” joins values, the source holds several entries; their conditions need not be identical. Identical values can stand only once. Marks after values point to notes of the source that are not given here. Non-standard residues stand in square brackets, D forms with d. Residues, ends and D or L forms follow the SMILES beside them. *: point of attachment. Asu = N[C@@H](CCCCCC(=O)O)C(=O)O; NHOH = ON*

Tests used:
HDAC1 [1] = target: T1, HDAC1 (Homo sapiens, UniProt Q13547); experiment: Recombinant HDAC µSPOT microarray binding assay;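 further: slides with spotted peptides incubated with six HDAC concentrations in HEPES buffer pH 7.4, spot intensities fitted by four-parameter logistic, EC50 as enzyme concentration giving half-maximal binding signal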
T1 construct: HDAC1 (full length, C-terminal His tag, C-terminal FLAG tag, BPS Bioscience, cat. #: 50051); FLAG (C); purchased BPS Bioscience 50051

HDAC8 = target: T2, HDAC8 (Homo sapiens, UniProt Q9BY41); experiment: HDAC inhibition assay (fluorogenic, Ac-Leu-Gly-Lys(Tfa)-AMC); format: biochemical; settings: for HDAC8 dose-response data (relative enzyme activity, replicate values), Fig. 6 + S. Fig. 10: two replicate columns per inhibitor; for HDAC8 dose-response data (relative enzyme activity), Fig. 6 + S. Fig. 10: duplicate columns
T2 construct: HDAC8 (full length, C-terminal His tag, BPS Bioscience, cat. #: 50008); purchased BPS Bioscience 50008
T2 sequence (Q9BY41 1-377): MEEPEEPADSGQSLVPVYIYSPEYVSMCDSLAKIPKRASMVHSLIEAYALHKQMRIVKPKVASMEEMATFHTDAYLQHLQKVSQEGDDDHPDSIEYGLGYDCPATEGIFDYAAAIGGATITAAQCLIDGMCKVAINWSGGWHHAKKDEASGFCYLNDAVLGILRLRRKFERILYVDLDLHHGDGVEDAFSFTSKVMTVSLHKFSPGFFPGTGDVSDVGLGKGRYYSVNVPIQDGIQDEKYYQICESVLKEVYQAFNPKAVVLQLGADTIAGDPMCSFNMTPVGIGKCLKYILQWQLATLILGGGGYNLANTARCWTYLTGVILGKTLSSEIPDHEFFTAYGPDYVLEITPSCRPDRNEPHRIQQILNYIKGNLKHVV

HDAC3/NCoR2 [2] = target: T3, HDAC3/NCoR2 (Homo sapiens, UniProt O15379); experiment: HDAC inhibition assay (fluorogenic, Ac-Leu-Gly-Lys(Ac)-AMC); format: biochemical; settings: for HDAC3 dose-response data (relative enzyme activity), Fig. 6 + S. Fig. 10: duplicate columns
T3 construct: HDAC3/NCoR2 (full length, C-terminal His tag, NCoR2 N-terminal GST tag); purchased BPS Bioscience 50003

HDAC3/NCoR2 [3] = target: T3, HDAC3/NCoR2; experiment: Recombinant HDAC µSPOT microarray binding assay;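 further: peptide spots on cellulose slides incubated with rising HDAC enzyme concentrations, imaged together, four-parameter logistic fit, EC50 is enzyme concentration giving half-maximal binding signal, two experiments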
HDAC1 [4] = target: T1, HDAC1; experiment: HDAC inhibition assay (fluorogenic, Ac-Leu-Gly-Lys(Ac)-AMC); format: biochemical; settings: for HDAC1 dose-response data (relative enzyme activity), Fig. 6 + S. Fig. 10: duplicate columns
HDAC6 = target: T4, HDAC6 (Homo sapiens, UniProt Q9UBN7); experiment: as above; format: biochemical; settings: HDAC6, replicates
T4 construct: HDAC6 (full length, BPS Bioscience, cat. #: 50056); purchased BPS Bioscience 50056
T4 sequence (Q9UBN7 1-1215): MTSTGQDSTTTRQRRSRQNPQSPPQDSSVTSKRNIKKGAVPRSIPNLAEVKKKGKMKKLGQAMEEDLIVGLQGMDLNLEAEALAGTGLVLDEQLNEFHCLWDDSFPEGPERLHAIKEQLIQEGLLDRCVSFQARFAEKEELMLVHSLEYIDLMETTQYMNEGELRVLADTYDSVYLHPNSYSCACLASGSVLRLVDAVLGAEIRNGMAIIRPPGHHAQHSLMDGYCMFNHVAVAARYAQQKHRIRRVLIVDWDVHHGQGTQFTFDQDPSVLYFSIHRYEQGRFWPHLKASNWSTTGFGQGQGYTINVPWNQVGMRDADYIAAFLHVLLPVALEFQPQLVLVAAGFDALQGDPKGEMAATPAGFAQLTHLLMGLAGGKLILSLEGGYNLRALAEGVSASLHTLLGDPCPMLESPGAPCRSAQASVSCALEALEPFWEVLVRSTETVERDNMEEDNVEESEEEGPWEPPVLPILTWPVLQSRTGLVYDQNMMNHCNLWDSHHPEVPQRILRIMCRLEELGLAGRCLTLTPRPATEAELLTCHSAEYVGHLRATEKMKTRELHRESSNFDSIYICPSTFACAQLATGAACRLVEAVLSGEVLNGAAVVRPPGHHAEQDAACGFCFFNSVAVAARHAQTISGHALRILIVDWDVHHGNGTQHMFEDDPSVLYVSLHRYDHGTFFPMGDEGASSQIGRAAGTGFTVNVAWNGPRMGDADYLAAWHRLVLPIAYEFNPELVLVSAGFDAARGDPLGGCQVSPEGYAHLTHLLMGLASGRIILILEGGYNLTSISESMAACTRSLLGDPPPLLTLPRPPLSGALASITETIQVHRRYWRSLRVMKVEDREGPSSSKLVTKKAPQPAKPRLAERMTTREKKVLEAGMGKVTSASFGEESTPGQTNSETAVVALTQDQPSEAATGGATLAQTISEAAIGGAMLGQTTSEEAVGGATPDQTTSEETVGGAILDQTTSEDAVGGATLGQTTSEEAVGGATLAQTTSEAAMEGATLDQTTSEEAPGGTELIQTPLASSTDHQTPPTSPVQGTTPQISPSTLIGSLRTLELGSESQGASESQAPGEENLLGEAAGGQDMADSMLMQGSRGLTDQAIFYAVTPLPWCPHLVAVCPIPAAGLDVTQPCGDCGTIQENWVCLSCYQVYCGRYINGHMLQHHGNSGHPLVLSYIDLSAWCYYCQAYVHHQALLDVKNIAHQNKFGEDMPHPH

HDAC2 = target: T5, HDAC2 (Homo sapiens, UniProt Q92769); experiment: as above; format: biochemical; settings: for HDAC2 dose-response data (relative enzyme activity), Fig. 6 + S. Fig. 10: duplicate columns
T5 construct: HDAC2 (full length, C-terminal His tag, BPS Bioscience, cat. #: 50002); purchased BPS Bioscience 50002

[5] = log[inhibitor(M)] -10,5850266520292*, whole line marked with asterisks

T5 sequence (Q92769 whole entry): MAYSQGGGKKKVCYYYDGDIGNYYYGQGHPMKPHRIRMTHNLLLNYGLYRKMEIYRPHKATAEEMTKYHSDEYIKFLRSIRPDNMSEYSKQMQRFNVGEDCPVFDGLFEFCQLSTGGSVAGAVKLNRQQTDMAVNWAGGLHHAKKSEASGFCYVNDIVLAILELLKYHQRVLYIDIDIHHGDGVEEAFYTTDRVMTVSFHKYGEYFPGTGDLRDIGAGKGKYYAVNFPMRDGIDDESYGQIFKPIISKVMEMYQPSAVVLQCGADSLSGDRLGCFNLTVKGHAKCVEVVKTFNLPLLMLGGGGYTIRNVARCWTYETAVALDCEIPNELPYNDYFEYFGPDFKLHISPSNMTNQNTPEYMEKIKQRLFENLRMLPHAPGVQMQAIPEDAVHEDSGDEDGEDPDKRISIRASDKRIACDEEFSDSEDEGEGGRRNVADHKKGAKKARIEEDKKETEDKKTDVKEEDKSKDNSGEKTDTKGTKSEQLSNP
T1 sequence (Q13547 whole entry): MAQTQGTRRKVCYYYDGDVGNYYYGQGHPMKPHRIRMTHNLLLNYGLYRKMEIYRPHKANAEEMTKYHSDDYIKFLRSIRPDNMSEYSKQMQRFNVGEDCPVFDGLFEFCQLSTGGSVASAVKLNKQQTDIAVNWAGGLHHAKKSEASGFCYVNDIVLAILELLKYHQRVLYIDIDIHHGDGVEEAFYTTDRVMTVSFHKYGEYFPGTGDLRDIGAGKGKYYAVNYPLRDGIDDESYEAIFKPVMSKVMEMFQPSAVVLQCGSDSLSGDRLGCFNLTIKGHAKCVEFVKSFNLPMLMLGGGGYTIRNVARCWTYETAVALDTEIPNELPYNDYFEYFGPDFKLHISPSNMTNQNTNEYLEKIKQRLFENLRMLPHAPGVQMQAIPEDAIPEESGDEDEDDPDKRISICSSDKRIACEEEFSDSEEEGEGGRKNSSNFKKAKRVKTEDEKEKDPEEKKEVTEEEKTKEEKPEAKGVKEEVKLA
T3 sequence (O15379 whole entry): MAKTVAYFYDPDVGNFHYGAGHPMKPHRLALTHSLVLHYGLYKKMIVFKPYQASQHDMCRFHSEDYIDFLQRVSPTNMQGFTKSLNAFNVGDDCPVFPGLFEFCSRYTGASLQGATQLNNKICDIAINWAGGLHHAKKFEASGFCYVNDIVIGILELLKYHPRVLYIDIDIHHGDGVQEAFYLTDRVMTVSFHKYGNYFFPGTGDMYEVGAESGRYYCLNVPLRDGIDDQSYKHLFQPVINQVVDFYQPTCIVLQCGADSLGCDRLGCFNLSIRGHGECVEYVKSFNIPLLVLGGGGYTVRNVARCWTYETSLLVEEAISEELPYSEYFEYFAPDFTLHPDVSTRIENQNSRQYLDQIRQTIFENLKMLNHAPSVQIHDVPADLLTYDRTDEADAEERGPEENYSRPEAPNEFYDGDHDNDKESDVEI
T3 sequence (Q9Y618 389-480 partner limits assumed): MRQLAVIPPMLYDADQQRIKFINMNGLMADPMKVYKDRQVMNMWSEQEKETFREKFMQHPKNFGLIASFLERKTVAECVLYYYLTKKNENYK

## CC(=O)N[C@@H](C)C(=O)N[C@@H](CCCNC(=N)N)C(=O)N[C@@H](CCCCN)C(=O)N[C@@H](CO)C(=O)N[C@H](C(=O)NCC(=O)NCC(=O)N[C@@H](CCCCN)C(=O)N[C@@H](C)C(=O)N1CCC[C@H]1C(=O)N[C@@H](CCCNC(=N)N)C(=O)N[C@@H](CCCCCC(=O)NO)C(=O)N[C@@H](CCC(N)=O)C(=O)N[C@@H](CC(C)C)C(=O)N[C@@H](C)C(=O)N[C@H](C(=O)N[C@@H](Cc1c[nH]c2ccccc12)C(N)=O)[C@@H](C)O)[C@@H](C)O [13a] (Ac-ARKSTGGKAPR[Asu](NHOH)QLATW-NH2)
HDAC1 [1]
  EC50: > 25.1 nM
HDAC8
  Ki: 5.1 ± 0.03 nM
HDAC8; Inhibitor conc [M] -8.49485 (log)
  HDAC8 dose-response data (relative enzyme activity, replicate values), Fig. 6 + S. Fig. 10: 71.9184 and 69.3811
HDAC8; Inhibitor conc [M] -9.19382 (log)
  HDAC8 dose-response data (relative enzyme activity, replicate values), Fig. 6 + S. Fig. 10: 90.9342 and 89.4061
HDAC8; Inhibitor conc [M] given as -7.09691 (log)
  HDAC8 dose-response data (relative enzyme activity, replicate values), Fig. 6 + S. Fig. 10: 21.0963 and 19.8616
HDAC8; Inhibitor conc [M] given as -7.79588 (log)
  HDAC8 dose-response data (relative enzyme activity, replicate values), Fig. 6 + S. Fig. 10: 40.3806 and 38.3863
HDAC8; Inhibitor conc [M] given as -9.89279 (log)
  HDAC8 dose-response data (relative enzyme activity, replicate values), Fig. 6 + S. Fig. 10: 99.1075 and 97.7
HDAC8; Inhibitor conc [M] given as -10.585 (log)
  HDAC8 dose-response data (relative enzyme activity, replicate values), Fig. 6 + S. Fig. 10: 102.311 and 100.47
HDAC8; Inhibitor conc [M] -4.30103
  HDAC8 dose-response data (relative enzyme activity), Fig. 6 + S. Fig. 10: 1.362 and 1.423
HDAC8; Inhibitor conc [M] -5
  HDAC8 dose-response data (relative enzyme activity), Fig. 6 + S. Fig. 10: 4.393 and 4.0005
HDAC8; Inhibitor conc [M] -5.69897
  HDAC8 dose-response data (relative enzyme activity), Fig. 6 + S. Fig. 10: 9.7232 and 9.03
HDAC8; Inhibitor conc [M] -6.39794
  HDAC8 dose-response data (relative enzyme activity), Fig. 6 + S. Fig. 10: 13.9289 and 13.185
HDAC3/NCoR2 [2]
  Ki: 2.14 ± 0.02 nM
HDAC3/NCoR2 [2]; log[inhibitor(M)] -4.30103
  HDAC3 dose-response data (relative enzyme activity), Fig. 6 + S. Fig. 10: 0.9488 and 1.386
HDAC3/NCoR2 [2]; log[inhibitor(M)] -5
  HDAC3 dose-response data (relative enzyme activity), Fig. 6 + S. Fig. 10: 3.154 and 2.6883
HDAC3/NCoR2 [2]; log[inhibitor(M)] -5.69897
  HDAC3 dose-response data (relative enzyme activity), Fig. 6 + S. Fig. 10: 8.657 and 8.271
HDAC3/NCoR2 [2]; log[inhibitor(M)] -6.39794
  HDAC3 dose-response data (relative enzyme activity), Fig. 6 + S. Fig. 10: 15.6479 and 15.4413
HDAC3/NCoR2 [2]; log[inhibitor(M)] -7.09691
  HDAC3 dose-response data (relative enzyme activity), Fig. 6 + S. Fig. 10: 23.7196 and 23.3659
HDAC3/NCoR2 [2]; log[inhibitor(M)] -7.79588
  HDAC3 dose-response data (relative enzyme activity), Fig. 6 + S. Fig. 10: 41.0048 and 43.3286
HDAC3/NCoR2 [2]; log[inhibitor(M)] -8.49485
  HDAC3 dose-response data (relative enzyme activity), Fig. 6 + S. Fig. 10: 70.4254 and 74.0708
HDAC3/NCoR2 [2]; log[inhibitor(M)] -9.19382
  HDAC3 dose-response data (relative enzyme activity), Fig. 6 + S. Fig. 10: 90.1455 and 92.6434
HDAC3/NCoR2 [2]; log[inhibitor(M)] -9.89279
  HDAC3 dose-response data (relative enzyme activity), Fig. 6 + S. Fig. 10: 95.7935 and 97.884
HDAC3/NCoR2 [2]; [5]
  HDAC3 dose-response data (relative enzyme activity), Fig. 6 + S. Fig. 10: 98,4914638* and 97,1472426*
HDAC3/NCoR2 [2]; resynthesized peptides, from Ki
  selectivity for HDAC3 vs. HDACs 1 and 2: > 8 fold
HDAC3/NCoR2 [3]
  EC50: 4.17 nM
HDAC1 [4]
  Ki: 17.9 ± 0.4 nM
HDAC1 [4]; log[inhibitor(M)] -5
  HDAC1 dose-response data (relative enzyme activity), Fig. 6 + S. Fig. 10: 5.502 and 6.317
HDAC1 [4]; log[inhibitor(M)] -5.69897
  HDAC1 dose-response data (relative enzyme activity), Fig. 6 + S. Fig. 10: 16.4811 and 18.8712
HDAC1 [4]; log[inhibitor(M)] -6.39794
  HDAC1 dose-response data (relative enzyme activity), Fig. 6 + S. Fig. 10: 32.4053 and 35.9654
HDAC1 [4]; log[inhibitor(M)] -7.09691
  HDAC1 dose-response data (relative enzyme activity), Fig. 6 + S. Fig. 10: 44.2666 and 47.9606
HDAC1 [4]; log[inhibitor(M)] -7.79588
  HDAC1 dose-response data (relative enzyme activity), Fig. 6 + S. Fig. 10: 60.5299 and 62.3252
HDAC1 [4]; log[inhibitor(M)] -8.49485
  HDAC1 dose-response data (relative enzyme activity), Fig. 6 + S. Fig. 10: 80.9321 and 81.9464
HDAC1 [4]; log[inhibitor(M)] -9.19382
  HDAC1 dose-response data (relative enzyme activity), Fig. 6 + S. Fig. 10: 95.5469 and 95.3965
HDAC1 [4]; log[inhibitor(M)] -9.89279
  HDAC1 dose-response data (relative enzyme activity), Fig. 6 + S. Fig. 10: 98.1308 and 82.1941
HDAC1 [4]; [5]
  HDAC1 dose-response data (relative enzyme activity), Fig. 6 + S. Fig. 10: 98,3704548* and 94,2568861*
HDAC6; log[inhibitor(M)] -4.30103
  residual enzymatic activity relative to control wells: -1.734 and 1.049
HDAC6; log[inhibitor(M)] -5
  residual enzymatic activity relative to control wells: -1.228 and 1.2154
HDAC6; log[inhibitor(M)] -5.69897
  residual enzymatic activity relative to control wells: 0.01806 and 2.993
HDAC6; log[inhibitor(M)] -6.39794
  residual enzymatic activity relative to control wells: 4.479 and 8.186
HDAC6; log[inhibitor(M)] -7.09691
  residual enzymatic activity relative to control wells: 18.6761 and 22.7019
HDAC6; log[inhibitor(M)] -7.79588
  residual enzymatic activity relative to control wells: 46.5457 and 51.1177
HDAC6; log[inhibitor(M)] -8.49485
  residual enzymatic activity relative to control wells: 65.89 and 75.8407
HDAC6; log[inhibitor(M)] -9.19382
  residual enzymatic activity relative to control wells: 72.6813 and 83.6344
HDAC6; log[inhibitor(M)] -9.89279
  residual enzymatic activity relative to control wells: 83.1572 and 99.4226
HDAC6; log[inhibitor(M)] -10.585
  residual enzymatic activity relative to control wells: 85.7762 and 94.8721
HDAC2; log[inhibitor(M)] -5
  HDAC2 dose-response data (relative enzyme activity), Fig. 6 + S. Fig. 10: 9.3053 and 9.139
HDAC2; log[inhibitor(M)] -5.69897
  HDAC2 dose-response data (relative enzyme activity), Fig. 6 + S. Fig. 10: 27.8438 and 26.8455
HDAC2; log[inhibitor(M)] -7.79588
  HDAC2 dose-response data (relative enzyme activity), Fig. 6 + S. Fig. 10: 88.6532 and 82.3131
HDAC2; [5]
  HDAC2 dose-response data (relative enzyme activity), Fig. 6 + S. Fig. 10: 104,855804* and 98,2337504*
HDAC2; resynthesized peptide in solution, Cheng-Prusoff, n = 2
  Ki: 60 ± 1 nM
